Measurements taken from patent US7579374B2, “Agent for improving bone metabolism” (The Nisshin OilliO Group, Ltd., priority 2001, dated 2009).

Assays:
Assay type in all cases: cell-based, mice
[1] = test system: MC3T3-E1 cells; experiment: Cell growth rate of osteoblasts in cell culture system; details: 10 μM; for Cell Growth Rate: viable cells after 3 days, relative to control defined as 100
Source text: (§1) In such a system, the osteoblasts are proliferated and the activity of osteoblasts is increased. Therefore, any influence of a substance on the osteoblast-formation can be evaluated by determining, for instance, the rate of cell proliferation and the alkaline phosphatase (ALP) activity as an activity parameter.
(§2) In this Example, there were examined the effects of the chain isoprenoid fatty acid esters on the differentiation and calcium-accumulation of MC3T3-E1 cells or the osteoblasts derived from the skull-caps of mice. A culture medium was added to a 6-well plate in an amount of 2 mL/well, a desired number of MC3T3-E1 cells was inoculated on the medium and the cells were cultivated in a 10% fatal bovine serum-containing base culture liquid (α-MEM, available from Gibco Company) at 37° C. in an atmosphere of 5% CO2. On the day subsequent to the initiation of the cultivation, the culture medium was replaced with the fresh one and simultaneously a solution containing each test sample (the chain isoprenoid fatty acid esters obtained in Preparation Examples 1 to 9) was admixed with and added to the culture medium in an amount of 10 μM for the determination of the cell growth rate and 2.5 μM for the determination of the alkali phosphatase (ALP) activity and the cultivation was continued. The cells for the cell growth rate determination were recovered after 3 days from the initiation of the cultivation and the number of viable cells was counted to determine the cell growth rate. Regarding the other cells, the medium was replaced with fresh one on 5th day of cultivation, the test sample-containing solution was again added and the alkali phosphatase (ALP) activity was determined after the cultivation over one week.
The cell growth rate was calculated as a value relative to the cell growth rate observed for the control (free of any added test sample), which was defined to be 100.

[2] = test system: MC3T3-E1 cells; experiment: Alkaline phosphatase (ALP) activity of osteoblasts in cell culture system; parameters: key to Judged Efficacy (ALP, t-test relative to the control): ⊚: The test substance shows a considerable inhibitory effect (p < 0.01); ◯: The test substance shows an inhibitory effect (p < 0.05); Δ: The test substance shows only slight or no inhibitory effect (there is not observed any significant difference); X: The test substance shows a bone absorption-promoting effect (there is observed a negativesignificant difference); details: 2.5 μM; for ALP Act.: cultivation over one week, control 71.6 ± 4.6; for Judged Efficacy (ALP, t-test relative to the control): one week
Source text: as §1, §2
In these experiments, there was used a kit for Alkaline Phospha K-Test WAKO (available from WAKO Pure Chemical Co., Ltd.). A sample used was a suspension of cells obtained by cultivating the same in the presence of each test substance added. A substrate (150 μL) was added to 10 μL of each sample followed by heating at 37° C. for 15 minutes, the addition of 150 μL of a color-developing liquid and determination of the absorbance at 570 nm. The ALP activity corresponding to each absorbance thus measured was determined using a calibration curve prepared in advance.

[3] = test system: osteoclasts; experiment: Bone absorption-inhibitory action in cell co-cultivation system (TRACP activity); parameters: key to Judged Efficacy (TRACP, t-test relative to the control): ⊚: The test substance shows a considerable inhibitory effect (p < 0.01); ◯: The test substance shows an inhibitory effect (p < 0.05); Δ: The test substance shows only slight or no inhibitory effect (there is not observed any significant difference); X: The test substance shows a bone absorption-promoting effect (there is observed a negativesignificant difference); details: 10 μM test substance; for Judged Efficacy (TRACP, t-test relative to the control): 2 weeks; for TRACP Act.: co-culture 2 weeks with 10 nM Calcitriol and 100 nM Dexamethasone, control 102.8 ± 12.6
Source text: The cell co-culture system used herein means a system in which osteoblasts and hematopoietic cells are subjected to co-culture in the presence of a factor for promoting the formation of osteoclasts and which thus easily permits the analysis of the differentiation process of the osteoclasts (Endocrinology, 1988, 123: 2600-2602). In such a system, osteoclasts are formed and therefore, the degree of osteoclast-formation can be evaluated by the determination of a tartaric acid-resistant acid phosphatase (TRACP) activity in the cell layer as the parameter indicative of the osteoclast.
The test for the confirmation of the bone absorption-inhibitory action of the isoprenoid ester was carried out according to the method disclosed in the literature (Endocrinology, 1988, 123: 2600). The method will be outlined below:
Stroma cells collected from the skull-caps of two-week-old mice according to the method disclosed in the literature (Endocrinology, 1988, 123: 2600) were dispersed in a 10% fetal bovine serum-containing culture base liquid (α-MEM; available from Gibco Company) to a cell density of 5×10^4 cells/mL.
Spleen cells collected from the spleen of 6-week-old ddy male mice according to the method disclosed in the literature (Proc. Natl. Acad. Sci. USA, 1983, 80: 5583) were dispersed in a 10% fetal bovine serum-containing culture base liquid (α-MEM; available from Gibco Company) to a cell density of 5×10^5 cells/mL.
The co-cultivation was carried out in a 5% CO2-containing atmosphere at a temperature of 37° C. using a 10% FBS (fetal bovine serum)-containing culture base liquid (α-MEM; available from Gibco Company). Osteoblast cells were inoculated on a 24-well petri dish at a cell density of 5×10^4 cells/mL/well, spleen cells were then inoculated thereon at a cell density of 5×10^5 cells/mL/well after one day and a solution of a test substance, which had been dissolved in DMSO in a concentration of 10^-2M, was then added to each well in such a manner that the concentration of the test substance was equal to 10 μM. These cells were cultivated in the presence of 10 nM Calcitriol and 100 nM Dexamethasone over 2 weeks while defining the day on which the spleen cells were inoculated as 0th day. In this respect, the culture medium was replaced with fresh one twice a week. After two weeks, the activity of the tartrate-resistant acid phosphatase (hereunder referred to as “TRACP”) in the cell layer was determined, which served as a parameter indicating the number of osteoclasts in the layer.
In the determination of the TRACP activity, there was used a kit of acid phosphatase KII-WAKO (available from WAKO Pure Chemical Co., Ltd.). The culture medium was removed from the Petri dish, 500 μL each of a substrate was added to each well, the resulting cell suspension was heated at 37° C. for 15 minutes, followed by the addition of 500 μL each of a color developing liquid and the determination of the absorbance at a wavelength of 570 nm. The TRACP activity corresponding to each absorbance thus measured was determined using a calibration curve prepared in advance.

Row | Compound | Cell Growth Rate [1] [%] | ALP Act. [2] [KA-U/well] | Judged Efficacy (ALP, t-test relative to the control) [2] | Judged Efficacy (TRACP, t-test relative to the control) [3] | TRACP Act. [3] [KA-U/well] | Effect on proliferation of osteoblasts (in words) ([1]; compared with the control)
1 | Geranyl Eicosapentaenoate | 121.4 | 87.2 ± 10.6 | ◯ (The test substance shows an inhibitory effect (p < 0.05)) | Δ | 87.4 ± 10.3 | –
2 | Farnesyl Eicosapentaenoate | 115.6 | 85.4 ± 8.4 | ◯ (The test substance shows an inhibitory effect (p < 0.05)) | Δ | 96.9 ± 12.7 | –
3 | CCC=CCC=CCC=CCC=CCC=CCCCC(=O)OCCC(C)CCCC(C)CCCC(C)CCCC(C)C (stereo not shown) [Dihydrophytyl Eicosapentaenoate] | 118.9 | 118.7 ± 8.9 | ⊚ (The test substance shows a considerable inhibitory effect (p < 0.01)) | ◯ (The test substance shows an inhibitory effect (p < 0.05)) | 83.4 ± 9.4 | –
4 | CC(C)=CCC/C(C)=C/CC/C(C)=C/CC/C(C)=C/CC1=C(C)C(=O)c2ccccc2C1=O [Vitamin K2 (MK-4), reference compound] | 32.4 | 78.6 ± 3.2 | ◯ (The test substance shows an inhibitory effect (p < 0.05)) | ⊚ (The test substance shows a considerable inhibitory effect (p < 0.01)) | 20.3 ± 4.1 | reduces the rate of cell proliferation
5 | Geranyl-Geranyl Docosahexaenoate | 104.8 | 89.8 ± 6.1 | ⊚ (The test substance shows a considerable inhibitory effect (p < 0.01)) | ⊚ (The test substance shows a considerable inhibitory effect (p < 0.01)) | 18.5 ± 5.8 | –
6 | CCCCC/C=C\C/C=C\C/C=C\CCCCC(=O)OC/C=C(\C)CC/C=C(\C)CC/C=C(\C)CCC=C(C)C [Geranyl-Geranyl γ-Linolenate] | 111.4 | 84.4 ± 5.1 | ⊚ (The test substance shows a considerable inhibitory effect (p < 0.01)) | ⊚ (The test substance shows a considerable inhibitory effect (p < 0.01)) | 21.7 ± 4.9 | –
7 | Geranyl-Geranyl Conjugated Linoleate | 120.1 | 88.3 ± 4.8 | ⊚ (The test substance shows a considerable inhibitory effect (p < 0.01)) | – | – | –
8 | CC1=C(C/C=C(\C)CCC[C@H](C)CCC[C@H](C)CCCC(C)C)C(=O)c2ccccc2C1=O [Vitamin K1, reference compound] | 69.3 | 76.1 ± 4.9 | Δ | ◯ (The test substance shows an inhibitory effect (p < 0.05)) | 88.5 ± 8.1 | –
9 | CC1=CC(=O)c2ccccc2C1=O [Vitamin K3, reference compound] | 0.0 | 91.2 ± 11.0 | ◯ (The test substance shows an inhibitory effect (p < 0.05)) | ◯ (The test substance shows an inhibitory effect (p < 0.05)) | 87.9 ± 10.2 | –
10 | Phytyl Eicosapentaenoate | 123.4 | 114.6 ± 7.7 | ⊚ (The test substance shows a considerable inhibitory effect (p < 0.01)) | ◯ (The test substance shows an inhibitory effect (p < 0.05)) | 84.2 ± 7.1 | –
